Measured values from ChEMBL document CHEMBL4507268 (2021).

Legend:
Settings in all cases: Compound concentration 1.0 uM
[1] = molecular target: BDNF/NT-3 growth factors receptor (Homo sapiens) (UniProt Q16620)
[2] = molecular target: Dual specificity protein kinase CLK3 (Homo sapiens) (UniProt P49761)
[3] = molecular target: Serine/threonine-protein kinase MRCK beta (Homo sapiens) (UniProt Q9Y5S2)
[4] = molecular target: Fibroblast growth factor receptor 2 (Homo sapiens) (UniProt P21802)
[5] = molecular target: Mitogen-activated protein kinase 1 (Homo sapiens) (UniProt P28482)
[6] = molecular target: T1, Beta-adrenergic receptor kinase 1 (Homo sapiens) (UniProt P25098)
T1 sequence (whole entry): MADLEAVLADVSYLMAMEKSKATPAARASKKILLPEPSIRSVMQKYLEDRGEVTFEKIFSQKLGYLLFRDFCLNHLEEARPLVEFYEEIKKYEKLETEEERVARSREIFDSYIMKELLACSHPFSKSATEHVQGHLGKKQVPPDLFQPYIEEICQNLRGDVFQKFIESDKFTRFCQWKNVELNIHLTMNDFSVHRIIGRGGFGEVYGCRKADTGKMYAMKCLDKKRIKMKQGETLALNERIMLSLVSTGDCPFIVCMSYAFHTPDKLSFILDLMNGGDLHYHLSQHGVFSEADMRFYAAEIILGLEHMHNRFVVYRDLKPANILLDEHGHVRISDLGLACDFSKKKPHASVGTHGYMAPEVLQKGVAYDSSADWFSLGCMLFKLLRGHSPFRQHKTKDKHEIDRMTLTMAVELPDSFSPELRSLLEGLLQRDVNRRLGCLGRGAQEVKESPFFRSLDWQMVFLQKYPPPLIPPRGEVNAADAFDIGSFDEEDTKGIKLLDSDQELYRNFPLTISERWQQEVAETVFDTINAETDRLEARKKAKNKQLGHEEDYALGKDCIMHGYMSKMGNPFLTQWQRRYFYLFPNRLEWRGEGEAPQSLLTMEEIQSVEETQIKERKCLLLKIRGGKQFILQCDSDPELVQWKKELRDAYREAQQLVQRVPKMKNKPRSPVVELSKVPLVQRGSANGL

[7] = molecular target: TRAF2 and NCK-interacting protein kinase (Homo sapiens) (UniProt Q9UKE5)
[8] = molecular target: Homeodomain-interacting protein kinase 2 (Homo sapiens) (UniProt Q9H2X6)
[9] = molecular target: T2, Inhibitor of nuclear factor kappa-B kinase subunit beta (Homo sapiens) (UniProt O14920)
T2 sequence (whole entry): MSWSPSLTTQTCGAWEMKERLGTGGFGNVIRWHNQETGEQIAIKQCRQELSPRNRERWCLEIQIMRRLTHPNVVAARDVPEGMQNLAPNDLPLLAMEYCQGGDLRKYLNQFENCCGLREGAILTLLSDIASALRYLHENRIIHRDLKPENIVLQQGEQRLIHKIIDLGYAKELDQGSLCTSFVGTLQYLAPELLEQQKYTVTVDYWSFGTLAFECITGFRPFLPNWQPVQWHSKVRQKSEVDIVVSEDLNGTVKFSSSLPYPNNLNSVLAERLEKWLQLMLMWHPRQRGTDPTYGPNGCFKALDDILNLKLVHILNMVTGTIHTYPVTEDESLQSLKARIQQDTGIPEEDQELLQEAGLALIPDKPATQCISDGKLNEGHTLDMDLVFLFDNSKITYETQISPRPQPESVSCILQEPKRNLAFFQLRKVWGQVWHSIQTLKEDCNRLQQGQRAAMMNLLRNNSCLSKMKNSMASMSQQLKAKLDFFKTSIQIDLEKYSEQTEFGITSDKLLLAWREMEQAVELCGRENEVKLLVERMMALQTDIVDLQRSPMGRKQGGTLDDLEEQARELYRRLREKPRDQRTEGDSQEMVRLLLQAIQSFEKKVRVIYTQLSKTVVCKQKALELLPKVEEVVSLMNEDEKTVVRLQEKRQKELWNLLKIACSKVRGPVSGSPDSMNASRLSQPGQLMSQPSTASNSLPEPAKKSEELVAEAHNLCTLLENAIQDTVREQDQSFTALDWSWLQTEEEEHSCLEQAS

[10] = molecular target: T3, Ephrin type-A receptor 1 (Homo sapiens) (UniProt P21709)
T3 sequence (whole entry): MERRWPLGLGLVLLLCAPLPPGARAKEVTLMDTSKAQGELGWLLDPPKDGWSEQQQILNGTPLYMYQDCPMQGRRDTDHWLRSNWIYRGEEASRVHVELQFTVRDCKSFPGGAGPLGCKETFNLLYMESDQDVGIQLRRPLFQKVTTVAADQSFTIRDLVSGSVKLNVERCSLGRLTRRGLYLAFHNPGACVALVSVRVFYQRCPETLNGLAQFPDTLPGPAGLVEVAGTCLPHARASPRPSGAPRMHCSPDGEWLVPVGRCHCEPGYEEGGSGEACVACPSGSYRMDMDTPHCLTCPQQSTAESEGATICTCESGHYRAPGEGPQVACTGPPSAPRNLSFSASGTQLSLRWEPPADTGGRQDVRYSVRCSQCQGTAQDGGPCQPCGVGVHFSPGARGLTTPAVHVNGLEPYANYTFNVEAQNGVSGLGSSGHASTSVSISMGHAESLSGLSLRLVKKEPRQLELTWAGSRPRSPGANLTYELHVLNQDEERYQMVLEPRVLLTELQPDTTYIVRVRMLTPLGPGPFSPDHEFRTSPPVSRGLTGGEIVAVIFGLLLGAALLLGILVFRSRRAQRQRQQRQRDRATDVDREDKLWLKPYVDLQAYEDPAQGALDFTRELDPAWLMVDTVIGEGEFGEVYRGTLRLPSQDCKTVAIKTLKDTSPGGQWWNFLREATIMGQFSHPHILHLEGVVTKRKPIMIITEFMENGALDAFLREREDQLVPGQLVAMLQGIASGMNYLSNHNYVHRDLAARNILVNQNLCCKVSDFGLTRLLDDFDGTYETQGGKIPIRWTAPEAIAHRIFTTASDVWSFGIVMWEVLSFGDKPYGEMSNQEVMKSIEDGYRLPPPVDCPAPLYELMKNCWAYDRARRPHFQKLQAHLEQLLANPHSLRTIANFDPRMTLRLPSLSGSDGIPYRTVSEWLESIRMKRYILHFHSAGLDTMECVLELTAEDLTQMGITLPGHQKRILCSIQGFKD

[11] = molecular target: CDK7/Cyclin H/MNAT1 (Homo sapiens) (UniProt P51946+P50613+P51948)
[12] = molecular target: Dual specificity protein kinase CLK2 (Homo sapiens) (UniProt P49760)

Measured: % residual kinase activity

Sequence of Fibroblast growth factor receptor 2 (Homo sapiens) (P21802 22-821 limits assumed): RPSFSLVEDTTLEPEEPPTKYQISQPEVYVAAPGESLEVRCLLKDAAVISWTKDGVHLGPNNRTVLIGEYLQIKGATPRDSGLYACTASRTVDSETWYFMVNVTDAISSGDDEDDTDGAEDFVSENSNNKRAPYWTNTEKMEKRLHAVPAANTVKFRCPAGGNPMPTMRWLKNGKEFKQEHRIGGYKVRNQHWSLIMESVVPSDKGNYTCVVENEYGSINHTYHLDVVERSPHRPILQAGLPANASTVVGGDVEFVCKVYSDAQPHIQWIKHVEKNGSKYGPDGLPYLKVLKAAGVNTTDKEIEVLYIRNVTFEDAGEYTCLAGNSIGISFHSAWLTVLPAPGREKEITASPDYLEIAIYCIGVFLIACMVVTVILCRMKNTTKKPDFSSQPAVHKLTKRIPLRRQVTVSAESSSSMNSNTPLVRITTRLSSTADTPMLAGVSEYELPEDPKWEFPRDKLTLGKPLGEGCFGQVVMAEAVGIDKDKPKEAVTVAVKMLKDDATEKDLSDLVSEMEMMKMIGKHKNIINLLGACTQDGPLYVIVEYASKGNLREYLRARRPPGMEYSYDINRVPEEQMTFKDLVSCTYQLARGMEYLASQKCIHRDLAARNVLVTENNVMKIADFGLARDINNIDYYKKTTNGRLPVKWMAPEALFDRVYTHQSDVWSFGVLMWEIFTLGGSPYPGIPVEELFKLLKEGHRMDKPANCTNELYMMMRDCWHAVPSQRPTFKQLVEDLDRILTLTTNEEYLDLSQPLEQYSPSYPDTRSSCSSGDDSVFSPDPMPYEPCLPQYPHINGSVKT
Sequence of Homeodomain-interacting protein kinase 2 (Homo sapiens) (Q9H2X6 whole entry, looked up): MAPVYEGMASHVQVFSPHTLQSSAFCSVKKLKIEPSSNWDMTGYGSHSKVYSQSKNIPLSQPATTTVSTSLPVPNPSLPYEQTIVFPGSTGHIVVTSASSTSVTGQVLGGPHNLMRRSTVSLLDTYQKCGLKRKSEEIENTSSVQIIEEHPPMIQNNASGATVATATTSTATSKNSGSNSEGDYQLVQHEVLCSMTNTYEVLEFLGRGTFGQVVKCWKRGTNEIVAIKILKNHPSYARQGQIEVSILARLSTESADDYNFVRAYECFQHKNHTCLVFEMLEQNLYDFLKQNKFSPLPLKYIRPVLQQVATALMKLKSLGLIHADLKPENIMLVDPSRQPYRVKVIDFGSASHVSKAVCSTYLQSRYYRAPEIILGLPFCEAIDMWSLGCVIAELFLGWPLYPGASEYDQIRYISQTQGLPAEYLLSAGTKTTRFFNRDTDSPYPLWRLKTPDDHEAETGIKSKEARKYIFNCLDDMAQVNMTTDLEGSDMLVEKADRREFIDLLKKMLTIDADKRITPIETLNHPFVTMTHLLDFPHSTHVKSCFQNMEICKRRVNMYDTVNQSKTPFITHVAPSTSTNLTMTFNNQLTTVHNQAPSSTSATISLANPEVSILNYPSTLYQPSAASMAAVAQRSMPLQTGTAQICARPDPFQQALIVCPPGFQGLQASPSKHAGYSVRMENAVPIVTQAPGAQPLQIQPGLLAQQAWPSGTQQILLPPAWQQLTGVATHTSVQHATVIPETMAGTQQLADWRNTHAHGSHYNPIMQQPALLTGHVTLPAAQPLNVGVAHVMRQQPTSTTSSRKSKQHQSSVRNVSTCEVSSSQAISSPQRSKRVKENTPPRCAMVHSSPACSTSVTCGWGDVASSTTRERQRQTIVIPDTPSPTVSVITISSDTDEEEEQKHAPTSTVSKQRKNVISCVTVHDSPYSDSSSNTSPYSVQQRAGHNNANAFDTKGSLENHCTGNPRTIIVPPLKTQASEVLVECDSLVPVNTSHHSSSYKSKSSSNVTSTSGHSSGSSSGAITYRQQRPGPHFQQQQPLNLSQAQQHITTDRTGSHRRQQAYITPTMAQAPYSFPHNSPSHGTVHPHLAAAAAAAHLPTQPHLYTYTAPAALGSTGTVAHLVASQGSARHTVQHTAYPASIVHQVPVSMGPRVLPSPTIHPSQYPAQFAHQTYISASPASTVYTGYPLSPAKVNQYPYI
Sequence of Serine/threonine-protein kinase MRCK beta (Homo sapiens) (Q9Y5S2 whole entry): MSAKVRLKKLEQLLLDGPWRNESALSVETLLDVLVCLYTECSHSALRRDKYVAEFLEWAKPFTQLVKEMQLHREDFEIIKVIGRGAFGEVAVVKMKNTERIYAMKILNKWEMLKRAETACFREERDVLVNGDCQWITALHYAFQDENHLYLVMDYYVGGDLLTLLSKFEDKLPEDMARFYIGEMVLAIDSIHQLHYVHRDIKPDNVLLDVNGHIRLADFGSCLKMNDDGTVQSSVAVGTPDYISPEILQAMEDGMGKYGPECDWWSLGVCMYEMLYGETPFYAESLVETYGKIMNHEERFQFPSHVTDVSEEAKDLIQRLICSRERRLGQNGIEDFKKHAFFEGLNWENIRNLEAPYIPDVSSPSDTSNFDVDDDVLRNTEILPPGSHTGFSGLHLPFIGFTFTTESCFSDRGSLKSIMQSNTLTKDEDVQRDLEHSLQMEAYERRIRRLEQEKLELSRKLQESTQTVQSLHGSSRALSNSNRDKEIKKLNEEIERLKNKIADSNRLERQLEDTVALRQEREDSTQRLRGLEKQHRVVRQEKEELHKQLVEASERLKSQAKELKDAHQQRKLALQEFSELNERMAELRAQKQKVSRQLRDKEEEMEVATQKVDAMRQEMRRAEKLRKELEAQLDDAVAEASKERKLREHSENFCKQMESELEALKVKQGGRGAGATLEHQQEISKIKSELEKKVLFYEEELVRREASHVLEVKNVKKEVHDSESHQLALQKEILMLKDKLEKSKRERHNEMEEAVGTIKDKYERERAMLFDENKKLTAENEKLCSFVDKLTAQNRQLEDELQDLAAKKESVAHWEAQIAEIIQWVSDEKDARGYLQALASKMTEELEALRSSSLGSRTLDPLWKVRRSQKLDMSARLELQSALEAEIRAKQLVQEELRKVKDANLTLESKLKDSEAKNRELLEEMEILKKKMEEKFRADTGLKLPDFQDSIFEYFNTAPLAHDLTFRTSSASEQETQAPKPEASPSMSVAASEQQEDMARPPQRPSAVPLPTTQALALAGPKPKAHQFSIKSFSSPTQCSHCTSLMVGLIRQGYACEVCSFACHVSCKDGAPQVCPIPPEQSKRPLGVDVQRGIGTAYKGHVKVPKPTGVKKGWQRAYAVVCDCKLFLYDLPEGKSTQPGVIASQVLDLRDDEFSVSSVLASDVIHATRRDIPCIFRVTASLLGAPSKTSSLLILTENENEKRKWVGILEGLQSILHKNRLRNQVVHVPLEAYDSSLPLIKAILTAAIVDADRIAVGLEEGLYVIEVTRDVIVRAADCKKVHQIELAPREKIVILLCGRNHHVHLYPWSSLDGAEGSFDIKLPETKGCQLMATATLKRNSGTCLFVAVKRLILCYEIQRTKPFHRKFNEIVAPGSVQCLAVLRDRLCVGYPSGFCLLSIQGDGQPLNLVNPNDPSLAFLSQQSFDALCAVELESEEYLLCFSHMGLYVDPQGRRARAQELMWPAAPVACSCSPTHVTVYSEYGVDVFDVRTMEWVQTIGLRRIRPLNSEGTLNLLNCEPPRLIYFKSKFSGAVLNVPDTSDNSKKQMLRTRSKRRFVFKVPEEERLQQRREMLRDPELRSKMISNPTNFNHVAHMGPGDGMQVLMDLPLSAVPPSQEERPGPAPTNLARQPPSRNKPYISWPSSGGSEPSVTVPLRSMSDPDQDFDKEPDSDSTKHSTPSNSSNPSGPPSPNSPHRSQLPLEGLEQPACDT
Sequence of BDNF/NT-3 growth factors receptor (Homo sapiens) (Q16620 32-822 limits assumed): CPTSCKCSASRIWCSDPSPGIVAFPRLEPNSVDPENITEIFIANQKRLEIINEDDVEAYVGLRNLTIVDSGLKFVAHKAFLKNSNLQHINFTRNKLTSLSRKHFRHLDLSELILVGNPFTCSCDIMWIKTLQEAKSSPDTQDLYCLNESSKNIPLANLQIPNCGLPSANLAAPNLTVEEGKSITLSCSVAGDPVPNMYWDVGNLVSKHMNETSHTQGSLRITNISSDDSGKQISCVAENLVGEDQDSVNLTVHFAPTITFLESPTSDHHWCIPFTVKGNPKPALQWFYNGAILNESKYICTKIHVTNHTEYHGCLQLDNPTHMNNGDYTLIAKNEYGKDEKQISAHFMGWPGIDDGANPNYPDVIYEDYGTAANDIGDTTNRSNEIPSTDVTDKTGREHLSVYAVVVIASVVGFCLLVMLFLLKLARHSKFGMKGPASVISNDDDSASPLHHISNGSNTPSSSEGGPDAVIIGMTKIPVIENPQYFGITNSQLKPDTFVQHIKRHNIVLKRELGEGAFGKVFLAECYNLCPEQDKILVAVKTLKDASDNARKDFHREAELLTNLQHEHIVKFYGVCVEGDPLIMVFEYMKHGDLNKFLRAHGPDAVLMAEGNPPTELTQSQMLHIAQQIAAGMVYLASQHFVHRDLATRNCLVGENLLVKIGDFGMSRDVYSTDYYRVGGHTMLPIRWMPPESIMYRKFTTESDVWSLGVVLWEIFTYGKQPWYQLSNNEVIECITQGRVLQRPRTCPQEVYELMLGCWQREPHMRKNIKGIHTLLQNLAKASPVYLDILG
Sequence of Mitogen-activated protein kinase 1 (Homo sapiens) (P28482 whole entry): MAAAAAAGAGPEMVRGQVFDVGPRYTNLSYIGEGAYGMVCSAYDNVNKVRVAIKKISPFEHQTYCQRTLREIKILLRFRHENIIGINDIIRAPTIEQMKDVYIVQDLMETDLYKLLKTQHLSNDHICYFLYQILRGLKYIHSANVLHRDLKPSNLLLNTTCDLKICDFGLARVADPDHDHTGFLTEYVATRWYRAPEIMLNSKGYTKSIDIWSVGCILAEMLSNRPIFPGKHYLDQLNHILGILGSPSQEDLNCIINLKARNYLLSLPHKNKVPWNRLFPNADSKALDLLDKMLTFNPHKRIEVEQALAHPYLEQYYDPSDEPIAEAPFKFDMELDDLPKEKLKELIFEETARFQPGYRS

CN1CCN(c2cnc3c(C4CCN(C(=O)c5ccc(OC(F)(F)F)cc5N)CC4)ncnc3c2)CC1 [BAY-885]
inactive: [1] 98% | [2] 111% | [3] 110% | [4] 107% | [5] 116% | [6] 85% | [7] 89% | [8] 107% | [9] 106% | [10] 106% | [11] 99% | [12] 109%
